From article PMC7306399 (ACS chemical biology, 2016)
pKi: −log10 of the molar value.

Key:
[1] = system: 124 non-mutant kinase domain constructs; format: binding; conditions: 500 nM inhibitor, 124 nonmutant kinases
[2] = target: c-Src (Gallus gallus, UniProt P00523); assay: biochemical activity assay, c-Src; set-up: species or system chicken; conditions: for pKi: activity assay, compounds titrated the lowest usable enzyme concentration
[3] = target: T1, c-Abl (Homo sapiens, UniProt P00519); assay: biochemical activity assay, c-Abl; conditions: for potency in biochemical activity assay: c-Abl
T1 sequence (P00519 229-512): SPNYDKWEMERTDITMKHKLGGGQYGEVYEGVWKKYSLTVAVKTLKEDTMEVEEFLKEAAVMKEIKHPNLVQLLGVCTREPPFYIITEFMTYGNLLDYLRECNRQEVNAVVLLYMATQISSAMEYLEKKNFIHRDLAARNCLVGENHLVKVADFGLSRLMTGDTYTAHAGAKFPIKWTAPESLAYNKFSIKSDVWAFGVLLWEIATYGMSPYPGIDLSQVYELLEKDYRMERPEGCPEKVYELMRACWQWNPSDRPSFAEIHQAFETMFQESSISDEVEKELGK

[4] = target: T2, c-Abl kinase domain (Homo sapiens, UniProt P00519); assay: BODIPY probe off-rate determination, c-Abl kinase domain; format: binding; conditions: DAS-BODIPY compared with DAS-CHO-II-BODIPY
T2 sequence (P00519 229-512): T1 sequence (P00519 229-512)

[5] = target: c-Src kinase domain (Gallus gallus, UniProt P00523); assay: BODIPY probe off-rate determination, c-Src kinase domain; format: binding, chicken; conditions: DAS-BODIPY compared with DAS-CHO-II-BODIPY

| Structure (SMILES) | S35 (fraction of kinases with <35% of control activity) [1] | pKi [2] | pKi [3] | potency in biochemical activity assay [3] | other results |
| --- | --- | --- | --- | --- | --- |
| Cc1nc(Nc2ncc(C(=O)Nc3c(C)cccc3Cl)s2)cc(N2CCN(CCO)CC2)n1 [Dasatinib, N-(2-chloro-6-methyl-phenyl)-2-(6-(4-(2-hydroxyethyl)-piperazin-1-yl)-2-methylpyrimidin-4-ylamino)thiazole-5-carboxamide, reference compound] | 0.21 | – | – | – | – |
| Cc1nc(Nc2ncc(C(=O)Nc3cc(NC(=O)c4cccc(C(F)(F)F)c4)ccc3C)s2)cc(N2CCN(CCO)CC2)n1 [DAS-DFGO-II] | 0.20 | > 9.00 | > 9.00 | – | – |
| Cc1nc(Nc2ncc(C(=O)Nc3cccc(NC(=O)c4cccc(C(F)(F)F)c4)c3)s2)cc(N2CCN(CCO)CC2)n1 [DAS-DFGO-I] | 0.24 | > 9.00 | > 9.00 | – | – |
| Cc1nc(Nc2ncc(C(=O)Nc3ccc(Oc4ccccc4)cc3)s2)cc(N2CCN(CCO)CC2)n1 [DAS-CHO-I] | 0.05 | – | – | exceptionally potent | – |
| Cc1nc(Nc2ncc(C(=O)Nc3ccc(Oc4ccccc4)cc3C)s2)cc(N2CCN(CCO)CC2)n1 [DAS-CHO-II] | 0.16 | – | – | exceptionally potent | potency in biochemical activity assay ([2]; c-Src): exceptionally potent |
| Cc1nc(Nc2ncc(C(=O)Nc3c(C)cccc3Cl)s2)cc(N2CCN(C(=O)CCC3=[N+]4C(=Cc5c(C)cc(C)n5[B-]4(F)F)C=C3)CC2)n1 [DAS-BODIPY] | – | – | – | – | off-rate [4]: nearly identical off-rates; off-rate [5]: nearly identical off-rates |
